The results in this text go back to the supplement of paper PMC11208160.
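Note: IS621 bridge recombinase in Escherichia coli cells against a fixed T5 target plasmid.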

The nature of this data set: recombinant UMI read abundance after kanamycin selection (control-corrected) (log10(CPM+1)); higher = more efficient recombination; extreme values may be limits of the assay; sequences stand for … in AGTGCAGAGAAAATCGGCCAGTTTTCTCTGCCTGCAGTCCGCATGCCGTGGGACCCCTTGGGTTCTAACCTGTTGCCTAGATTTATGCAGCGGACTGCCTTTCTCCCAAAGTGATAAACCGG…AGGTTGGTTTCACT; site = the 11-nt donor. A digest of the protocol:
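Sequenced counts of recombinant UMIs were turned into CPM, averaged across replicates and scaled with control-derived factors. The reported figure is log10(CPM+1). Those UMIs, each 12 nt long, tagged donor and donor-binding-loop pairs on a plasmid with a promoterless kanamycin gene, screened as a pool in Escherichia coli with IPTG (0.07 mM) plus kanamycin or without selection.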
For the sequence “TACATCCCATGGACCGGTTTTCCCGGTAATCCGTATTTGAG (site TACATCCCTCT)”, the “recombinant UMI read abundance (log10)” value is 0.0123.
In the case of “TACATGACATGGACCGGTTTTCCCGGTAATCCGTATTTGCG (site TACATGACTCG)” it was 1.12; in that of “TACATGACATGGACCGGTTTTCCCGGTAATCCGTATTTGTG (site TACATGACTCA)”, 0.61; in that of “TACATGTCATGGACCGGTTTTCCCGGTAATCCGTATTTGTC (site TACATGTCTGA)”, 1.56.
In the case of “TACCCACCATGGACCGGTTTTCCCGGTAATCCGTATTTGAC (site TACCCACCTGT)” it was 0; in that of “TACCGTTCATGGACCGGTTTTCCCGGTAATCCGTATTTGTT (site TACCGTTCTAA)”, 0.218.
In the case of “TACCTCCCATGGACCGGTTTTCCCGGTAATCCGTATTTGGC (site TACCTCCCTGC)” it was 0; in that of “TACCTGCCATGGACCGGTTTTCCCGGTAATCCGTATTTGTA (site TACCTGCCTTA)”, 0.0209; in that of “TACCTTACATGGACCGGTTTTCCCGGTAATCCGTATTTGGA (site TACCTTACTTC)”, 0.0267.
In the case of “TACGCACCATGGACCGGTTTTCCCGGTAATCCGTATTTGAG (site TACGCACCTCT)”, the “recombinant UMI read abundance (log10)” value amounted to 0.0119.
Consider “TACGGATCATGGACCGGTTTTCCCGGTAATCCGTATTTGTA (site TACGGATCTTA)”, for which the “recombinant UMI read abundance (log10)” value was determined as 0.989.
In the case of “TACGGTACATGGACCGGTTTTCCCGGTAATCCGTATTTGTG (site TACGGTACTCA)” it was 0.582; in that of “TACGGTGCATGGACCGGTTTTCCCGGTAATCCGTATTTGAC (site TACGGTGCTGT)”, 1.15; in that of “TACGTGACATGGACCGGTTTTCCCGGTAATCCGTATTTGCT (site TACATGACTAG)”, 1.65.
In the case of “TACGTGACATGGACCGGTTTTCCCGGTAATCCGTATTTGCT (site TACCTGACTAG)” it was 0.0236; in that of “TACGTGACATGGACCGGTTTTCCCGGTAATCCGTATTTGCT (site TACGTGACTAG)”, 2.43; in that of “TACGTGACATGGACCGGTTTTCCCGGTAATCCGTATTTGCT (site TACTTGACTAG)”, 0.238.
As to “TACTAGGCATGGACCGGTTTTCCCGGTAATCCGTATTTGGT (site TACTAGGCTAC)”, the “recombinant UMI read abundance (log10)” value was 0.225.
In the case of “TACTAGGCATGGACCGGTTTTCCCGGTAATCCGTATTTGGT (site TCCTAGGCTAC)” it was 0.0602.
In the case of “TACTAGGCATGGACCGGTTTTCCCGGTAATCCGTATTTGGT (site TGCTAGGCTAC)” it was 0.0175; in that of “TACTAGGCATGGACCGGTTTTCCCGGTAATCCGTATTTGGT (site TTCTAGGCTAC)”, 0.00516; in that of “TACTATGCATGGACCGGTTTTCCCGGTAATCCGTATTTGCG (site TACTATGCTCG)”, 0.64.
In the case of “TACTGGACATGGACCGGTTTTCCCGGTAATCCGTATTTGCT (site TACTAGACTAG)” it was 0.948; in that of “TACTGGACATGGACCGGTTTTCCCGGTAATCCGTATTTGCT (site TACTCGACTAG)”, 0.188.
Take “TACTGGACATGGACCGGTTTTCCCGGTAATCCGTATTTGCT (site TACTGGACTAG)”: the “recombinant UMI read abundance (log10)” value is 2.01.
In the case of “TACTGGACATGGACCGGTTTTCCCGGTAATCCGTATTTGCT (site TACTTGACTAG)” it was 0.00209; in that of “TACTTGACATGGACCGGTTTTCCCGGTAATCCGTATTTGCC (site TACTTGACTAG)”, 0.0078; in that of “TACTTGACATGGACCGGTTTTCCCGGTAATCCGTATTTGCC (site TACTTGACTCG)”, 0.0284.
In the case of “TACTTGACATGGACCGGTTTTCCCGGTAATCCGTATTTGCC (site TACTTGACTGG)” it was 0.
